# Reference: patent US20140120232A1, “ACID TASTE/ACID SMELL-REDUCING AGENT” (T. HASEGAWA CO., LTD., priority 2011, published 2014)
# Experiment: Sensory evaluation of Vermont drink containing the agent
# Conditions: ten panels
# How it was run: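 Tridecadienal or tridecatrienal isomers added at various concentrations to a Vermont-flavoured drink (apple-cider vinegar, honey, liquid sugar, citric acid, trisodium citrate, 100 mL total). Ten panelists assessed acid taste/acid smell and aldehyde-type off-odour, and the concentration giving the best acid taste/smell quality was selected.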
structure (smiles),measurement,setting,value
"CCCCC/C=C\C/C=C/C=C/C=O [(E,E,Z)-2,4,7-tridecatrienal]","A: number of panels, acid taste/acid smell extreme and cause irritation",0.005 ppt,10
same,"B: number of panels, acid taste/acid smell slightly strong and slightly cause irritation",0.005 ppt,0
same,"C: number of panels, acid taste/acid smell slightly unpleasant",0.005 ppt,0
same,Flavor judgment: number of panels who judged acid taste/acid smell quality the highest,0.005 ppt,0
same,"N: number of panels, irritation of acid reduced to give a mild acid taste",0.005 ppt,0
same,"X: number of panels, acid taste reduced but piercing odor characteristic to aldehydes unpleasant",0.005 ppt,0
same,"A: number of panels, acid taste/acid smell extreme and cause irritation",0.02 ppt,10
same,"B: number of panels, acid taste/acid smell slightly strong and slightly cause irritation",0.02 ppt,0
same,"C: number of panels, acid taste/acid smell slightly unpleasant",0.02 ppt,0
same,Flavor judgment: number of panels who judged acid taste/acid smell quality the highest,0.02 ppt,0
same,"N: number of panels, irritation of acid reduced to give a mild acid taste",0.02 ppt,0
same,"X: number of panels, acid taste reduced but piercing odor characteristic to aldehydes unpleasant",0.02 ppt,0
same,"A: number of panels, acid taste/acid smell extreme and cause irritation",0.1 ppt,10
same,"B: number of panels, acid taste/acid smell slightly strong and slightly cause irritation",0.1 ppt,0
same,"C: number of panels, acid taste/acid smell slightly unpleasant",0.1 ppt,0
same,Flavor judgment: number of panels who judged acid taste/acid smell quality the highest,0.1 ppt,0
same,"N: number of panels, irritation of acid reduced to give a mild acid taste",0.1 ppt,0
same,"X: number of panels, acid taste reduced but piercing odor characteristic to aldehydes unpleasant",0.1 ppt,0
same,"A: number of panels, acid taste/acid smell extreme and cause irritation",0.2 ppt,8
same,"B: number of panels, acid taste/acid smell slightly strong and slightly cause irritation",0.2 ppt,2
same,"C: number of panels, acid taste/acid smell slightly unpleasant",0.2 ppt,0
same,Flavor judgment: number of panels who judged acid taste/acid smell quality the highest,0.2 ppt,0
same,"N: number of panels, irritation of acid reduced to give a mild acid taste",0.2 ppt,0
same,"X: number of panels, acid taste reduced but piercing odor characteristic to aldehydes unpleasant",0.2 ppt,0
same,"A: number of panels, acid taste/acid smell extreme and cause irritation",0.5 ppt,7
same,"B: number of panels, acid taste/acid smell slightly strong and slightly cause irritation",0.5 ppt,2
same,"C: number of panels, acid taste/acid smell slightly unpleasant",0.5 ppt,1
same,Flavor judgment: number of panels who judged acid taste/acid smell quality the highest,0.5 ppt,0
same,"N: number of panels, irritation of acid reduced to give a mild acid taste",0.5 ppt,0
same,"X: number of panels, acid taste reduced but piercing odor characteristic to aldehydes unpleasant",0.5 ppt,0
same,"A: number of panels, acid taste/acid smell extreme and cause irritation",1 ppb,0
same,"B: number of panels, acid taste/acid smell slightly strong and slightly cause irritation",1 ppb,0
same,"C: number of panels, acid taste/acid smell slightly unpleasant",1 ppb,3
same,Flavor judgment: number of panels who judged acid taste/acid smell quality the highest,1 ppb,0
same,"N: number of panels, irritation of acid reduced to give a mild acid taste",1 ppb,4
same,"X: number of panels, acid taste reduced but piercing odor characteristic to aldehydes unpleasant",1 ppb,3
same,"A: number of panels, acid taste/acid smell extreme and cause irritation",1 ppt,0
same,"B: number of panels, acid taste/acid smell slightly strong and slightly cause irritation",1 ppt,5
same,"C: number of panels, acid taste/acid smell slightly unpleasant",1 ppt,4
same,Flavor judgment: number of panels who judged acid taste/acid smell quality the highest,1 ppt,0
same,"N: number of panels, irritation of acid reduced to give a mild acid taste",1 ppt,1
same,"X: number of panels, acid taste reduced but piercing odor characteristic to aldehydes unpleasant",1 ppt,0
same,"A: number of panels, acid taste/acid smell extreme and cause irritation",5 ppt,0
same,"B: number of panels, acid taste/acid smell slightly strong and slightly cause irritation",5 ppt,2
same,"C: number of panels, acid taste/acid smell slightly unpleasant",5 ppt,3
same,Flavor judgment: number of panels who judged acid taste/acid smell quality the highest,5 ppt,3
same,"N: number of panels, irritation of acid reduced to give a mild acid taste",5 ppt,5
same,"X: number of panels, acid taste reduced but piercing odor characteristic to aldehydes unpleasant",5 ppt,0
same,"A: number of panels, acid taste/acid smell extreme and cause irritation",10 ppb,0
same,"B: number of panels, acid taste/acid smell slightly strong and slightly cause irritation",10 ppb,0
same,"C: number of panels, acid taste/acid smell slightly unpleasant",10 ppb,2
same,Flavor judgment: number of panels who judged acid taste/acid smell quality the highest,10 ppb,0
same,"N: number of panels, irritation of acid reduced to give a mild acid taste",10 ppb,2
same,"X: number of panels, acid taste reduced but piercing odor characteristic to aldehydes unpleasant",10 ppb,6
same,"A: number of panels, acid taste/acid smell extreme and cause irritation",20 ppt,0
same,"B: number of panels, acid taste/acid smell slightly strong and slightly cause irritation",20 ppt,0
same,"C: number of panels, acid taste/acid smell slightly unpleasant",20 ppt,4
same,Flavor judgment: number of panels who judged acid taste/acid smell quality the highest,20 ppt,4
same,"N: number of panels, irritation of acid reduced to give a mild acid taste",20 ppt,6
same,"X: number of panels, acid taste reduced but piercing odor characteristic to aldehydes unpleasant",20 ppt,0
same,"A: number of panels, acid taste/acid smell extreme and cause irritation",50 ppb,0
same,"B: number of panels, acid taste/acid smell slightly strong and slightly cause irritation",50 ppb,0
same,"C: number of panels, acid taste/acid smell slightly unpleasant",50 ppb,0
same,Flavor judgment: number of panels who judged acid taste/acid smell quality the highest,50 ppb,0
same,"N: number of panels, irritation of acid reduced to give a mild acid taste",50 ppb,2
same,"X: number of panels, acid taste reduced but piercing odor characteristic to aldehydes unpleasant",50 ppb,8
same,"A: number of panels, acid taste/acid smell extreme and cause irritation",100 ppt,0
same,"B: number of panels, acid taste/acid smell slightly strong and slightly cause irritation",100 ppt,0
same,"C: number of panels, acid taste/acid smell slightly unpleasant",100 ppt,3
same,Flavor judgment: number of panels who judged acid taste/acid smell quality the highest,100 ppt,3
same,"N: number of panels, irritation of acid reduced to give a mild acid taste",100 ppt,7
same,"X: number of panels, acid taste reduced but piercing odor characteristic to aldehydes unpleasant",100 ppt,0
same,"A: number of panels, acid taste/acid smell extreme and cause irritation",500 ppt,0
same,"B: number of panels, acid taste/acid smell slightly strong and slightly cause irritation",500 ppt,0
same,"C: number of panels, acid taste/acid smell slightly unpleasant",500 ppt,4
same,Flavor judgment: number of panels who judged acid taste/acid smell quality the highest,500 ppt,0
same,"N: number of panels, irritation of acid reduced to give a mild acid taste",500 ppt,4
same,"X: number of panels, acid taste reduced but piercing odor characteristic to aldehydes unpleasant",500 ppt,2
